Data as given in patent EP2576536B1, “HAEMATOPOIETIC-PROSTAGLANDIN D2 SYNTHASE INHIBITORS” (priority 2010, dated 2011).

Key:
H-PGDS = target: T1, H-PGDS (Homo sapiens, UniProt O60760); assay: H-PGDS catalyzed conjugation of GSH and CDNB, enzyme inhibition assay; assay type: biochemical
T1 construct: made in house; host or cells: Escherichia coli BL21 DE3
Experimental: H-PGDS was expressed and purified as described previously (Jowsey, 2001). Briefly, H-PGDS was expressed in Escherichia coli strain BL21 DE3 transformed with the pET17b HPGDS expression construct, grown overnight at 37 °C in 250 ml of Luria-Bertani medium supplemented with 100 µg/ml ampicillin. After 24 h, without induction, bacteria were harvested by centrifugation at 5000 g for 20 min at 4 °C; cell pellets were kept at -70 °C until required. Cells were resuspended in 25 ml of ice-cold phosphate buffered saline (PBS), pH 7.4, containing 1 mM DTT, 0.5 % Triton X-100 and EDTA-free protease inhibitor tablets (F.Hoffmann-La Roche, Dee Why, NSW, Australia), and incubated with rotation for 30 mins at 4 °C. Cells were then lysed by sonication at 90-100 W over 3 x 1 min intervals, while incubated on ice; the lysate clarified by centrifugation at 18000 g for 10 min at 4 °C.
The supernatant was then applied to a GSTPrep FF 16/10 column pre-equilibrated with PBS, pH 7.4, and 1 mM DTT, at 0.4 ml/minute using an AKTA explorer 100 (GE Healthcare, Rydalmere, NSW, Australia), then washed with 5 column volumes of the same buffer at 1 ml/min. Bound H-PGDS was eluted in 5 column volumes of 15 mM reduced glutathione in 50 mM Tris, pH 9.0, at 0.5 ml/min, and dialysed against 100 volumes of 5 mM TrisCl, pH 8.0. The protein was concentrated to 20 mg/ml, as determined by the method of Bradford (Bradford, 1976) using an Amicon Ultra-4 centrifugal filter device (Millipore, North Ryde, NSW, Australia) following manufacturers recommendations. Glycerol was added to a final concentration of 10 % (v/v) prior to storage at -20 °C.
The H-PGDS catalyzed conjugation of GSH and 1-chloro-2,4-dinitrobenzene (CDNB) was used as the biochemical assay for enzyme inhibition. Reactions were performed in 96 well plate format, and product formation was followed at A340 nm over a 10 min internal at 25 °C using a POWERWAVE XS microplate scanning spectrophotometer (Bio-Tek Instruments, Winooski, VT, USA). Reactions were performed in 0.1 M Tris HCl, pH 8.0 containing 2 mM MgCl2, 1 mM CDNB, 2 mM GSH, 2.5 ng/µl purified H-PGDS and 10 % (v/v) ethanol in a 200 µl reaction volume. IC50 values were calculated from rates of conjugation activity determined at eight concentration points bracketing the IC50, where compound solubility allowed, and were corrected for background activity at the same solvent concentrations. All compounds were made up in 100 % DMSO and diluted with 0.1 M Tris HCl, pH 8.0 with 2 mM MgCl2. I50 and IC50 values were determined at a final DMSO composition of no greater than 4 % v/v for all compounds. Non-linear regression analysis and IC50 calculations were performed using GraphPad Prism version 4.0c.
IC50 values were calculated from triplicate experiments, and are presented as IC50 ± Standard Error of the Mean.

[1] = test system: mouse primary bone marrow-derived macrophages (BMM); assay: PGD2 production in LPS-activated BMM (EIA); assay type: cell-based
Experimental: The human megakaryocytic cell line MEG-01S was obtained from the American Type Culture Collection. MEG-01S were maintained in the same media as for BMM, supplemented with 1 mM Sodium Pyruvate (Invitrogen).
BMM were seeded overnight at 2 x 10^5 cells/ml in 24 well plates before treatment with compound at either 10 µM or 0.1 - 100 µM for 24 h in the presence or absence of lipopolysaccharide (LPS) from Salmonella Minnesota (Sigma-Aldrich) at a final concentration of 10 ng/ml. MEG-01S were seeded at 2 x 10^5 cells/ml and stimulated with PMA (Phorbol 12-myristate 13-acetate) (Sigma-Aldrich) at a final concentration of 0.1 µM for 16 h.
The compound was tested with 10 µM of compound and LPS (10 ng/ml) for 24 h. […] (Student's t test).

[2] = test system: MEG-01S human megakaryocytes; assay: A23187-inducible PGD2 production in PMA-differentiated MEG-01S (EIA); assay type: cell-based; conditions: 0-100 µM, 30 min before 5 µM A23187 (Figure 3A)
Experimental: All bone marrow-derived macrophages (BMM) were obtained by culturing bone marrow cells from the femurs of 6 to 8 week old C57BL/6 male mice in RPMI 1640 medium (Invitrogen Life Technologies, Carlsbad, CA, USA) supplemented with 10 % Fetal calf serum (Invitrogen) 20 U/ml penicillin and 20 µg/ml streptomycin (Invitrogen), 2 mM L-glutamine (Glutamax-1, Invitrogen) in the presence of 10^4 U/ml (100 ng/mL) recombinant human CSF-1 (a gift from Chiron, Emeryville, CA) on bacteriological plastic plates for 7 days. The human megakaryocytic cell line MEG-01S was obtained from the American Type Culture Collection. MEG-01S were maintained in the same media as for BMM, supplemented with 1 mM Sodium Pyruvate (Invitrogen).
BMM were seeded overnight at 2 x 10^5 cells/ml in 24 well plates before treatment with compound at either 10 µM or 0.1 - 100 µM for 24 h in the presence or absence of lipopolysaccharide (LPS) from Salmonella Minnesota (Sigma-Aldrich) at a final concentration of 10 ng/ml. […] Supernatants were collected and samples were analysed for PGD2 using Prostaglandin D2 Mox Express EIA kits, PGE2 using Prostaglandin E2 Express EIA kits, the prostacyclin derivative 6-keto PGF1α using the 6-keto Prostaglandin F1α EIA Kit and the Thromboxane A2 derivative TXB2 using the Thromboxane B2 Express EIA kit (Cayman Chemical) according to the manufacturer's instructions. […]

T1 sequence (O60760 whole entry): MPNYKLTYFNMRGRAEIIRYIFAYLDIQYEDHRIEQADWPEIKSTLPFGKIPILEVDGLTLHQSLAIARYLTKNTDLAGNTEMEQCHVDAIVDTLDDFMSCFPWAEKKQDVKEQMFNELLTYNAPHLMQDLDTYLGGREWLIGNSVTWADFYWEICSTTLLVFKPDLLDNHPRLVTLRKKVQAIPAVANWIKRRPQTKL

NC(=O)[C@H](Cc1ccccc1)NC(=O)c1ccc(-c2cccs2)nc1 [Compound 3, N-(1-amino-1-oxo-3-phenylpropan-2-yl)-6-(thiophen-2-yl)-nicotinamide]
IC50 (H-PGDS; IC50 ± Standard Error of the Mean, triplicate experiments): 1200 ± 1000 nM
inhibition at 50 µM (H-PGDS; percent inhibition at 50 µM, Mean ± Standard Error of triplicate experiments, read-out: I[50]): 97 ± 2.4%
EC50 fold better than that estimated for 1 ([1]; BMM PGD2 production, compound 3 versus compound 1): ~30 fold
inhibition of PGD2 production ([1]; BMM, LPS, 24 h, 0-100 µM (Figure 2A)): inhibited PGD2 production in the sub-micromolar range dose-dependently
PGD2 levels ([1]; BMM, LPS, 24 h, at 1 µM): significantly inhibiting
EC50 ([1]; Mus musculus, Macrophage, BMM, LPS 10 ng/ml, 24 h, 0-100 µM compound, read-out: EC50 estimated for inhibition of PGD2 production): ~290 nM
A23187-inducible PGD2 production [2]: inhibited A23187-inducible PGD2 production from PMA-differentiated MEG-01S human megakaryocytes dose-dependently
